# Test results published in patent US8648116B2, “Derivatives of N-(arylamino) sulfonamides including polymorphs as inhibitors of MEK as well as compositions, methods of use and methods for preparing the same” (Ardea Biosciences, Inc., priority 2005, dated 2014).
# Where two headings read alike, the source gives them in different places.
# How the values were obtained:
# A375 cells = experiment: Evaluation of cell cycle arrest (propidium iodide, flow cytometry); type: cell-based, human; conditions: 24 hr
# Procedure: A375 cells were plated in 96-well microplates at 10,000 cells/200 μl/well. […] After another 24 hr, cells were trypsinized, fixed in 200 μl Prefer (Anatech, Battle Creek, Mich.), and stored at 4° C. overnight. Cells were then rinsed in PBS, permeabilized and stained in 0.1% Triton X-100, 200 μg/ml DNase-free RNase, and […] propidium iodide (Molecular Probes, Sunnyvale, Calif.), and analyzed on the Guava PCA-96 (Guava Technologies, Foster City, Calif.). Data were analyzed using ModFit LT (version 3.0, Verity, Topsham, Me.).
# MDA-MB231 cells = experiment: Anchorage-independent growth inhibition (MTS, 7 days); type: cell-based, human
# [1] = system: select human cancer cells; experiment: Growth inhibition in proliferation assays, summary over cell lines; type: cell-based
# [2] = system: BxPC3 pancreatic adenocarcinoma cells; experiment: Anchorage-dependent growth inhibition (ATP content, 48 hr); type: cell-based, human; conditions: BxPC3, 48 hr
# [3] = Concentration-time profiles after a single dose of capsules; set-up: species or system human cancer patients; conditions: human, in vivo, oral, capsules of example 95A, Day 1; for AUC(0-t): read-out: AUC0-12hr
# Procedure: Human cancer patients were administered a single dose of the 1 mg or 10 mg capsule composition described above in example 95A. For a 2 mg dose, patients were given 2×1 mg capsules; for a 4 mg dose, patients were given 4×1 mg capsules; for a 6 mg dose, patients were given 6×1 mg capsules; for a 10 mg dose, patients were given 1×10 mg capsule; for a 20 mg dose, patients were given 2×10 mg capsules.
# The concentration-time profiles were monitored and are shown in FIG. 4 and in the table below: […]
# [4] = system: Complete Freund's Adjuvant induced arthritis; experiment: Rat adjuvant arthritis inflammation assay; type: in vivo, rats; conditions: 20 mg/kg orally for 5 days
# Procedure: In the rat adjuvant induced arthritis model, Complete Freund's Adjuvant (CFA) is injected into the right hind paw of rats to induce pathologies similar to rheumatoid arthritis in humans. Compound A was administered orally for 5 consecutive days at 2, 6, and 20 mg/kg. Dexamethasone at 5 m g/kg was also administered orally for 5 days. Enbrel at 10 mg/kg was administered by subcutaneous injection on days 1 and 4. CFA was injected into the right hind paw one hour after the first dose on day 1. […] Polyarthritis was scored as the presence of swelling in front paws, tail, nose or ear.
# pERK in brain = experiment: MEK inhibition (pERK, Western blot) against plasma concentration, brain; type: in vivo, nu/nu mice
# Procedure: Human tumors were implanted in nu/nu mice. Compound A was administered orally for 14 days once tumors were approximately 100 mm^3 in size. Tumor growth inhibition (TGI) was determined after 14 days of treatment as the reduction in the size of tumors in treated groups versus vehicle controls. The time to endpoint (TTE) was calculated as the time for the tumor to reach the specified endpoint volume or the last day of the study, whichever came first. Treatment outcome was determined from percent tumor growth delay (% TGD), defined as the percent increase in median TTE of treated versus vehicle-treated control mice. Animals were also monitored for regression responses. Levels of pERK in tumors and brain were determined by Western blots and correlated with plasma levels of Compound A for the pharmacodynamic/pharmacokinetic study. A number of tumor models were evaluated with different doses and dosing regimens. […] The effect of different dosing regimens was evaluated in A375 xenografts.
# Female nu/nu mice implanted with Colo205 tumor cells were given a single dose of vehicle or Compound A at 2.5, 5, 10, or 25 mg/kg. Compound levels were determined in plasma samples and pERK levels were determined in tumor and brain samples collected at 2, 6, 12, and 24 hr post-dose. […]
# [5] = system: COLO 205 human colon carcinoma xenografts; experiment: Activity against subcutaneous COLO 205 xenografts (Example 118)
# Procedure: Dosing solutions of Compound A were prepared fresh daily by dissolving the required amount of compound in 100% Cremophor EL, and then diluting ten-fold with normal saline. Final dosing solution concentrations were 2.5, 5, 10, or 20 mg/mL, in order to provide respective doses of 25, 50, 100 or 200 mg/kg in a dosing volume of 10 mL/kg. Paclitaxel (Natural Pharmaceuticals, Inc.) was prepared fresh on each day of dosing in a vehicle consisting of 5% ethanol and 5% Cremophor EL in 90% D5W (5% EC vehicle).
# Group 1 received the formulation vehicle (10% Cremophor EL in saline), and served as the tumor growth control group. Group 2 received the reference drug paclitaxel administered on its optimal schedule in nude mice (30 mg/kg i.v. qod×5). […] All doses were scaled to the weight of the animal (0.2 mL per 20 grams body weight).
# Tumors were measured twice each week using calipers. […] Therefore endpoint tumor size of 800 mm^3 was used for analysis of tumor growth delay (TGD).
# [formula] where b is the intercept and m is the slope of the line obtained by linear regression of a log-transformed tumor growth data set.
# [6] = Group 3, 50 mg/kg po qd × 14 per the 39th table (25 mg/kg p.o. qd×14), n=9
# [7] = Group 4, 25 mg/kg po bid × 14 first day 1 dose per the 39th table (50 mg/kg p.o. qd×14), n=9
# [8] = Group 5, 25 mg/kg po qd × 14 per the 39th table (100 mg/kg p.o. qd×14), n=9
# [9] = Group 6, 12.5 mg/kg po bid × 14 first day 1 dose per the 39th table (200 mg/kg p.o., discontinued after six days), n=9
structure (smiles),measurement,setting,value
COc1cc(F)c(F)c(Nc2ccc(I)cc2F)c1NS(=O)(=O)C1(C[C@H](O)CO)CC1,effect on cell cycle progression,A375 cells,arrest in the G1 phase of the cell cycle
same,GI50,"MDA-MB231 cells; MDA-MB231, anchorage independent",81 nM
same,anchorage independent growth (FIG. 12C),MDA-MB231 cells; MDA-MB231 cells,inhibition of MDA-M8231 cells
same,GI50,"[1]; mean over A375, Colo205, HT29 and A431, 48 hr, ATP content, read-out: growth inhibition, mean potency (GI50)",79 nM
same,GI50,"[1]; select human cancer cells, range, read-out: GI50 values, anchorage dependent proliferation assays",70 to 89 nM
same,GI50,"[1]; select human cancer cells, read-out: GI50, anchorage dependent proliferation assays",51 nM
same,GI50,"[1]; select human cancer cells, read-out: GI50, anchorage independent proliferation assays",22 nM
same,GI50,[2],> 1000 nM
COc1cc(F)c(F)c(Nc2ccc(I)cc2F)c1NS(=O)(=O)C1(C[C@H](O)CO)CC1 [Compound A],Cmax,"[3]; 2 mg, 2 mg dose",0.111 ng/mL
same,Tmax,"[3]; 2 mg, 2 mg dose",2 h
same,Cmax,"[3]; 4 mg, 4 mg dose",0.292 ng/mL
same,AUC(0-t),[3]; 2 mg dose,0.7 ng·h/mL
same,AUC(0-t),[3]; 4 mg dose,2.26 ng·h/mL
same,animals without front paw swelling (polyarthritis scoring),[4],2 of 6
same,animals without swelling in the tail (polyarthritis scoring),[4],4 of 6
same,inhibition of paw swelling,[4]; acute and delayed phases,significant reduction in swelling
same,pERK formation in brain,"pERK in brain; Colo205 xenograft mice, pharmacodynamic/pharmacokinetic study",minimal inhibition
same,EC50,"pERK in brain; Mus musculus, plasma concentration, Colo205-bearing nu/nu mice, single dose 2.5-25 mg/kg",> 5000 nM
same,TGD,[5]; 25 mg/kg p.o. qd×14,3%
same,TGD,[5]; 50 mg/kg p.o. qd×14,46%
same,TGD,[5]; 100 mg/kg p.o. qd×14,maximum TGD possible
same,relation to the MTD,[5]; 200 mg/kg p.o. once daily,above the MTD
same,TR deaths,"[5]; 200 mg/kg p.o., dosing stopped after Day 6",3/9
same,Median TTE,"[5]; Group 3, 25 mg/kg p.o. qd×14",47.9 days
same,% TGD,[5]; [6],17%
same,MTV (n) Day 74,[5]; [6],0 (3)
same,Median TTE,[5]; [6],47.9 days
same,No of CR,[5]; [6],0
same,No of NTR (non-treatment-related deaths),[5]; [6],2
same,No of PR,[5]; [6],1
same,No of TFS,[5]; [6],0
same,No of TR (treatment-related deaths),[5]; [6],2
same,"SS (statistical significance, logrank vs Group 1)",[5]; [6],ns
same,T − C,[5]; [6],6.9 days
same,% TGD,[5]; [7],44%
same,MTV (n) Day 74,[5]; [7],195 (1)
same,Median TTE,[5]; [7],59.1 days
same,No of CR,[5]; [7],0
same,No of NTR (non-treatment-related deaths),[5]; [7],0
same,No of PR,[5]; [7],4
same,No of TFS,[5]; [7],0
same,No of TR (treatment-related deaths),[5]; [7],0
same,"SS (statistical significance, logrank vs Group 1)",[5]; [7],ns
same,T − C,[5]; [7],18.1 days
same,Median TTE,"[5]; Group 4, 50 mg/kg p.o. qd×14",59.1 days
same,% TGD,[5]; [8],80%
same,MTV (n) Day 74,[5]; [8],320 (5)
same,Median TTE,[5]; [8],74.0 days
same,No of CR,[5]; [8],0
same,No of NTR (non-treatment-related deaths),[5]; [8],0
same,No of PR,[5]; [8],4
same,No of TFS,[5]; [8],0
same,No of TR (treatment-related deaths),[5]; [8],1
same,"SS (statistical significance, logrank vs Group 1)",[5]; [8],ns
same,T − C,[5]; [8],33.0 days
same,Median TTE,"[5]; Group 5, 100 mg/kg p.o. qd×14",74.0 days
same,% TGD,[5]; [9],41%
same,MTV (n) Day 74,[5]; [9],0 (3)
same,Median TTE,[5]; [9],57.8 days
same,No of CR,[5]; [9],3
same,No of NTR (non-treatment-related deaths),[5]; [9],2
same,No of PR,[5]; [9],1
same,No of TFS,[5]; [9],0
same,No of TR (treatment-related deaths),[5]; [9],2
same,T − C,[5]; [9],16.8 days
